Literature values as cited in PMC6966182 (CPT: Pharmacometrics & Systems Pharmacology, 2019).
Where two headings read alike, the source gives them in different places. Each block holds one molecule with its values, some of them ahead of it.

Legend:
HIV = settings: TFV‐DP concentration in PBMC
OAT3 = settings: read-out: OAT3 Transporter (K i) (renal); SimCYP input
[1] = not given; remark: listed apart in the source
[2] = absorption rate constant, SimCYP input
PBMC = settings: SimCYP input
[3] = not given; remark: listed apart in the source
[4] = not given; remark: listed apart in the source
[5] = not given; remark: listed apart in the source
[6] = SD TFV + PRO, healthy volunteers, GM (95% confidence interval)
[7] = SD TFV–PRO, healthy volunteers, GM (95% confidence interval)

EC90 (HIV): 16 fmol/10^6 cells
increase at the intracellular level with PRO (at 24 hours): ~ 30%
accumulation of TFV‐DP in PBMCs (daily TDF administration): greater than eightfold
SMILES: CC(Cn1cnc2c(N)ncnc21)OCP(=O)(O)OP(=O)(O)OP(=O)(O)O (stereo in doubt) [TFV‐DP, tenofovir di‐phosphate]

SMILES: CCCN(CCC)S(=O)(=O)c1ccc(C(=O)O)cc1 [PRO, probenecid]
maximum tolerated dose [1]: 2 g

k a [2]: 1.03 1/h11
Efflux Clint,t (PBMC additional organ) (PBMC): 1.288 µL/minute11, 12
AUC0‐INF OBS [3, 6]: 6,349 (5,598–7,200) ng • hour/mL
Cmax OBS [3, 6]: 538 (494–585) ng/mL
AUC0‐INF OBS [3, 7]: 3,973 (3,576–4,415) ng • hour/mL
CLr OBS [3, 7]: 15.4 (12.2–19.4) L/hour
Cmax OBS [3, 7]: 529 (451–620) ng/mL
increase in single‐dose TFV overall plasma exposure (AUC0‐INF) ([3]; in the presence of 2 g PRO, fasted healthy volunteers, as predicted): 60%
change in TFV Cmax ([3]; in the presence of 2 g PRO, single dose, as predicted): nearly unchanged
TFV in circulation available for transporter‐mediated secretion [4]: 20–30%
bioavailability [4]: ~ 25%
increase in TFV systemic exposure with food ([4]; TDF given with high‐fat or light meals, ref Other studies): ~ 35%
fraction unbound (f u) [5]: > 0.9
SMILES: C[C@H](Cn1cnc2c(N)ncnc21)OCP(=O)(O)O [TFV, tenofovir]
Uptake J max (PBMC additional organ) (PBMC): 10.44 pmol/minute/whole organ11, 12
Uptake K m (PBMC additional organ) (PBMC): 0.355 µM11, 12
